{"source": "patent US11726088B2", "about": "“Sirtuin 4 (SIRT4) lipoamidase activity and uses thereof” (THE TRUSTEES OF PRINCETON UNIVERSITY, priority 2014, dated 2023)", "key": {"[1]": {"system": "DLAT lipoyl (K132 and K259)", "assay": "DLAT lipoyl levels by PRM quantification in glutamax-stimulated cells", "assay_type": "cell-based, human", "settings": "glutamax stimulation, within 48 hr", "experimental": "Lipoyl-lysine SRM assay. The relative abundance of lipoyl-lysine-containing peptides identified from immunoisolated, in-gel digested DLAT (described above) was measured in mitochondria lysates using a selected reaction monitoring (SRM) full-scan tandem mass spectrometry assay. Purified mitochondria were isolated from MRC5 stable cell lines expressing EGFP, SIRT4-EGFP, and SIRT4-targeting shRNA (described above). Mitochondria pellets were lysed by agitation and bath sonication in 100 μL of hot (95° C.) buffer containing 0.1 M ammonium bicarbonate, 5 mM tris(2-carboxyethyl)phosphine, 1 mM nicotinamide, and 0.1% RapiGest. Protein concentration was determined using the Bradford reagent (Sigma). […] Eluates from the same sample were pooled and concentrated to near-dryness, diluted to 8 μL, and half were analyzed by an LC-SRM-MS/MS assay on an LTQ Orbitrap Velos mass spectrometry (Thermofisher Scientific). […] At least four co-eluting XICs (dot-product score of ≥0.95) were used for peak area quantification. […] Peak areas were summed across XICs, exported to Excel, and normalized across biological replicates (n=3-6) using the average chromatographic precursor intensity calculated by RawMeat (Vast Scientific, Inc). Statistical significance was determined by unpaired, two-tailed t-tests in Microsoft Excel. […]"}, "PDH": {"system": "PDH", "assay": "PDH activity assay (immunocapture colorimetric) in fibroblasts stimulated with glutamax", "assay_type": "cell-based, human", "settings": "WT fibroblasts, glutamax 4 mM, versus unstimulated cells", "experimental": "PDH activity assay. The activity of the PDHC in MRC5 derivate cell lines was measured using the Pyruvate Dehydrogenase Enzyme Activity Microplate Assay Kit (Abcam, cat. #ab109902) according to manufacturer's instructions. 1000 μg/well of cultured cell extract from each line being tested was used as input for PDHC binding, and 5 μg/well of pyruvate dehydrogenase from porcine heart (Sigma-Aldrich, cat. #P7032) used as a positive control for the assay. PDH activity was measured by reduction of NAD+ to NADH, coupled to the reduction of a reporter dye to yield a colored reaction product with an increase in absorbance at 450 nm at room temperature. […] Statistical significance was assessed by one-way ANOVA in GraphPad Prism 5. […]\nWe next investigated a cellular condition known to inhibit PDH activity, and examined the involvement of SIRT4 in this process. […] In agreement with these observations, we detected elevated expression of endogenous SIRT4 in cells stimulated with glutamax (FIG. 3J). To validate the dependence of PDH inhibition on SIRT4 activity, we first measured PDH activity in SIRT4 OE cells stimulated with glutamax. […] It remains to be determined whether residual SIRT4 still functions in these knocked-down lines to decrease PDH activity following glutamax stimulation, or another yet to be identified PDH inhibition mechanism is at play. […]"}}, "note": "Peptide text beside a SMILES is read from it."}
{"smiles": "C[C@H](N)C(=O)N[C@@H](CCC(N)=O)C(=O)O", "note": "[glutamax] (H-Ala-Gln-OH)", "values": [{"measurement": "DLAT lipoyl levels", "setting": "[1]", "value": "decrease"}, {"measurement": "PDH activity", "setting": "PDH", "value": "significant time-dependent decrease"}]}
